Source: ChEMBL document CHEMBL1201862, “PubChem BioAssay data set” (2004)
Calls of active or inactive are those of the source.

Columns and labels:
[1] = cytotoxicity in HPDE-C7 cells, cell-based, fluorescence, HTS (AID 430); assay type: functional; details: Homo sapiens
[2] = cytotoxicity in KRAS-transformed pancreatic duct cells, primary screen, cell-based, fluorescence, HTS (AID 431); assay type: functional; details: Homo sapiens;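 also: cell line used: HPDE-C7K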
Cytochrome P450 2C19 = Cytochrome P450 2C19 (Homo sapiens, UniProt P33261); assay: Cytochrome panel assay with activity outcomes. Panel member name: p450-cyp2c19 Compounds with AC50 equal or less than 10 uM are considered active; assay type: functional; details: read-out: AC50
Cytochrome P450 3A4 = Cytochrome P450 3A4 (Homo sapiens, UniProt P08684);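 also: CYP3A4 tested as one member of a cytochrome P450 panel screen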
Cytochrome P450 2C9 = Cytochrome P450 2C9 (Homo sapiens, UniProt P11712)
[3] = target: Luciferin 4-monooxygenase (Photinus pyralis, UniProt P08659); assay: firefly luciferase enzyme inhibitors, dose response, biochemical, luminescence (AID 1891)
[4] = target: T1, Mannose-6-phosphate isomerase (Homo sapiens, UniProt P34949); assay: human PMI inhibitors, high substrate, primary screen, biochemical, fluorescence intensity, high mannose 6-phosphate (AID 1220)
T1 sequence (P34949 whole entry): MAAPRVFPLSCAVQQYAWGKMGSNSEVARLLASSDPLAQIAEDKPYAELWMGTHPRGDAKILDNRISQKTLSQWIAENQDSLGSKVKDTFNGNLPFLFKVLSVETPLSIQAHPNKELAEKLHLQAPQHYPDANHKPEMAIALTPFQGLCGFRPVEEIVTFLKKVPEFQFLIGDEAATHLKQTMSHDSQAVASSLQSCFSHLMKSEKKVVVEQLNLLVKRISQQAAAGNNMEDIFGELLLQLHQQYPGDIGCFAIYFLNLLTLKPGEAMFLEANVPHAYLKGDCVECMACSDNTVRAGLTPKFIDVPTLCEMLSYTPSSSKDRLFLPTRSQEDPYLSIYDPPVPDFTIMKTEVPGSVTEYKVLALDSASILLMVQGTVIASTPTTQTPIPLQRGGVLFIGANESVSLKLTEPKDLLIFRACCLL

[5] = A Cell Based Secondary Assay To Explore Cytotoxicity of Compounds that Sensitize Mycobacterium Tuberculosis to Beta-Lactam Antibiotics.; assay type: functional
[6] = target: Glyceraldehyde-3-phosphate dehydrogenase (Homo sapiens, UniProt P04406)
Bcl-2-related protein A1 [7] = target: T2, Bcl-2-related protein A1 (Mus musculus, UniProt Q07440); assay: Bfl-1 inhibitors blocking BH3 peptide binding, confirmation, biochemical, TR-FRET, mouse Bfl-1 (AID 621);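 also: TR-FRET binding of GST-Bfl-1 to FITC-labelled Bid peptide via terbium antibody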
T2 sequence (Q07440 whole entry): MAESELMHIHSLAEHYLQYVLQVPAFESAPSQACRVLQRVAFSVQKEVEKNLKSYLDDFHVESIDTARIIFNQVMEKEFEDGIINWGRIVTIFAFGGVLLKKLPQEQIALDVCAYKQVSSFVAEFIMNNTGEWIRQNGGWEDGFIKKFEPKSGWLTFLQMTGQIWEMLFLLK

Bcl-2-related protein A1 [8] = target: T2, Bcl-2-related protein A1; assay: Bfl-1 binding inhibitors, SAR follow-up, biochemical, fluorescence polarization (AID 1070)
[9] = growth suppression of PTEN-null colon cells, dose response, cell-based, HCT116 PTEN knockout (AID 1047); assay type: functional;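 also: HCT116 colon tumor cells with PTEN knocked out; cells exposed to compound for 60 hours before readout; potency for loss of cell viability measured by luminescence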
[10] = growth suppression of beta-catenin-knockout colon cells, dose response, cell-based, HCT116, human colon tumor (AID 1045); assay type: functional;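 also: HCT116 colon tumor cells with beta catenin knocked out; cells exposed to compound for 60 hours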
[11] = CEM21 lymphoblast cell cytotoxicity, dose response, cytotoxicity control for viral fusion inhibitor project, CellTiter-Glo luminescence, cherry-picked (AID 652042); assay type: functional, cell-based;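 also: potency for signal decrease meaning cytotoxicity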
[12] = ZM109 Env clade C HIV-1 fusion inhibitors, dose response, HeLa effector, CEM target cells, luciferase, cherry-pick (AID 652058); assay type: functional, cell-based
[13] = off-target signal loss in HeLa-CEM21 co-culture – HeLa F-luc CTL cells, cherry-picked, counter-screen for HIV-1 Env fusion inhibitor project, dose response (AID 652040); assay type: functional, cell-based;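 also: potency for signal decrease marking cytotoxic or nonspecific inhibition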
[14] = inhibitors of clade B AD8 Env fusion, dose response, cell-based, cherry-pick (AID 652062); assay type: functional;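 also: luciferase signal from cell-cell fusion driven by HIV-1 clade B AD8 Env; potency is for inhibitors of fusion seen as a drop in luminescence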
cells = assay type: functional
[15] = target: Ras and Rab interactor 1/Tyrosine-protein kinase ABL1 (Homo sapiens, UniProt P00519+Q13671); assay type: functional;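 also: biochemical TR-FRET dose-response test measuring inhibition of binding between Rin1 and Abl proteins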
[16] = Vero cell cytotoxicity, dose response, cytotoxicity control for Vif-APOBEC3G degradation inhibitor project, Vero cells (AID 1117358); assay type: functional; details: Human immunodeficiency virus 1, Vero
[17] = miR-122 activators in hepatoma reporter cells, dose response, cell-based, Huh7 psiCHECK-miR122, Renilla luciferase, cherry-picked (AID 651956); assay type: functional;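 also: huh7 hepatoma cells stably carrying a psiCHECK-2 miR-122 sensor plasmid; renilla luciferase signal reporting endogenous miR-122 activity after 48 h compound exposure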
[18] = P. falciparum Dd2 growth inhibitors, dose response, SYBR Green, cherry-picked samples (AID 1159567); assay type: functional, cell-based
[19] = HepG2 cell cytotoxicity, dose response, cytotoxicity control, cherry-picked samples (AID 1159577); assay type: functional, cell-based
[20] = LGR2 antagonists, dose response, cell-based, HEK293, CRE-luciferase reporter, cherry pick, set 2 (AID 743343); assay type: functional;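 also: transfected cells were stimulated with diluted bursicon conditioned medium after compound addition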
[21] = MC4R antagonists, dose response, counter-screen for LGR2 antagonist project, cell-based, plate reader, cherry pick (AID 743444); assay type: functional;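 also: transfected HEK 293 cells stimulated with alpha-MSH peptide; potency of inhibitors of the alpha-MSH evoked signal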
[22] = inhibitors of HIV Env-driven cell fusion, dose response, cherry-pick (AID 652057); assay type: functional, cell-based

Ras and Rab interactor 1/Tyrosine-protein kinase ABL1, sequence (P00519 whole entry): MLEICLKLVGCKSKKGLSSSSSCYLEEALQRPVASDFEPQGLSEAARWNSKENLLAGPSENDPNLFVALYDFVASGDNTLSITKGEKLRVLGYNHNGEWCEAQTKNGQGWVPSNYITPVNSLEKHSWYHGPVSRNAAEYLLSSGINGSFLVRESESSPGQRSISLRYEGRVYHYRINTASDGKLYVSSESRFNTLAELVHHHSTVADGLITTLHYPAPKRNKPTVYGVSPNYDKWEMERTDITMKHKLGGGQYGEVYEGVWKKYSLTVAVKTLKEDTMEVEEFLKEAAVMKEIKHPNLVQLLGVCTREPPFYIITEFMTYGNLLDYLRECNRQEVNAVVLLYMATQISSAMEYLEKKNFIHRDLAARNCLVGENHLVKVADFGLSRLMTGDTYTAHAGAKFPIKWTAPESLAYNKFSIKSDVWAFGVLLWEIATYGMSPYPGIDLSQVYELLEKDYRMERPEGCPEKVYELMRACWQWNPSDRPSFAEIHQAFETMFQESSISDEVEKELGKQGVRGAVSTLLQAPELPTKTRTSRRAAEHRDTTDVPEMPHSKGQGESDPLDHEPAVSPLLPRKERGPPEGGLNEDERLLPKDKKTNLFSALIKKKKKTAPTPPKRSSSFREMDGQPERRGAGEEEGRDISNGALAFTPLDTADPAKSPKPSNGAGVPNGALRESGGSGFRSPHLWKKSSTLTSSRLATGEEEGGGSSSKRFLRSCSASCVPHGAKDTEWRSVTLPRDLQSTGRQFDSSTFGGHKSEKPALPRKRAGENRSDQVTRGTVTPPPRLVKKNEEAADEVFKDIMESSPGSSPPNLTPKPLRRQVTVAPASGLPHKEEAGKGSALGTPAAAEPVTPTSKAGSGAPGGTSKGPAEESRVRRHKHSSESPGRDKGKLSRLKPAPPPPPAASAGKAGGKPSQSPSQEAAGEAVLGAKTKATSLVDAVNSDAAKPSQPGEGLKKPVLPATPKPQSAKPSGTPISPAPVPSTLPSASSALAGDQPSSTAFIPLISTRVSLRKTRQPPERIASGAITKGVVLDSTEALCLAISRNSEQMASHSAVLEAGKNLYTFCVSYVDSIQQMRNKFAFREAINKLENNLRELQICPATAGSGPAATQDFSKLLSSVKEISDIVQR
Ras and Rab interactor 1/Tyrosine-protein kinase ABL1, sequence (Q13671 whole entry): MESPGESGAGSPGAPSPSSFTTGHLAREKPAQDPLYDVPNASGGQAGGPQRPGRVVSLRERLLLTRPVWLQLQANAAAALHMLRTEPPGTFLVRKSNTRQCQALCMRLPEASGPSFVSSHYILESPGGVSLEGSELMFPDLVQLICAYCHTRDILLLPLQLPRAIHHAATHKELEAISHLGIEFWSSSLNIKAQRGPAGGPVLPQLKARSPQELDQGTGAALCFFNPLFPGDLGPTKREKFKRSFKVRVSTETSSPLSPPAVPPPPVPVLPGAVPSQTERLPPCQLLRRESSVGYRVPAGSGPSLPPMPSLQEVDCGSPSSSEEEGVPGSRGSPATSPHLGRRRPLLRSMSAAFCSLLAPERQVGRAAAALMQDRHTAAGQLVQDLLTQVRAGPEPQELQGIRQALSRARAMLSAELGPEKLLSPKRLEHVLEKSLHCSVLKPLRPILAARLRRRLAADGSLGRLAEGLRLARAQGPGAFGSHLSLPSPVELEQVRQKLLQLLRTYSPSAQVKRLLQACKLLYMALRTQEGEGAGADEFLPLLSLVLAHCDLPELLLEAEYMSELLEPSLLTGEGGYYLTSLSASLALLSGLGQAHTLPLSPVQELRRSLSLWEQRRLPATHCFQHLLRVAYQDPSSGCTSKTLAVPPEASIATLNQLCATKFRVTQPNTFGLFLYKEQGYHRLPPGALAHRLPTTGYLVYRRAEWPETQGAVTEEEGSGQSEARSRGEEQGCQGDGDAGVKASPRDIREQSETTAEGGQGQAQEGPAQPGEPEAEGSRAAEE
Cytochrome P450 3A4, sequence (P08684 whole entry): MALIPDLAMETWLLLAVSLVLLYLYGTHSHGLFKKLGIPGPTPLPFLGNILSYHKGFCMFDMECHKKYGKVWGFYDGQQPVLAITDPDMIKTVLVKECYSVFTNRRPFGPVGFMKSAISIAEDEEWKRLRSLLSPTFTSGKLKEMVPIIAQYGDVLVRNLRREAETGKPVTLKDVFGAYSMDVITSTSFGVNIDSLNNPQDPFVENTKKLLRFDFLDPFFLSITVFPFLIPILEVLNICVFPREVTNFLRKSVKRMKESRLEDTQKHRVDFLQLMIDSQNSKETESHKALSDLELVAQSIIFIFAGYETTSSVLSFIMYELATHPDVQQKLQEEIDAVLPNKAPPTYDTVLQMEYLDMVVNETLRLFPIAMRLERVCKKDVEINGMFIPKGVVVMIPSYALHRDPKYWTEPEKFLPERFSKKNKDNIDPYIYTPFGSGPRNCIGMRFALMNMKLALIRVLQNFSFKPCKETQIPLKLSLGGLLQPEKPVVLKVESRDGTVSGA
Glyceraldehyde-3-phosphate dehydrogenase, sequence (P04406 whole entry): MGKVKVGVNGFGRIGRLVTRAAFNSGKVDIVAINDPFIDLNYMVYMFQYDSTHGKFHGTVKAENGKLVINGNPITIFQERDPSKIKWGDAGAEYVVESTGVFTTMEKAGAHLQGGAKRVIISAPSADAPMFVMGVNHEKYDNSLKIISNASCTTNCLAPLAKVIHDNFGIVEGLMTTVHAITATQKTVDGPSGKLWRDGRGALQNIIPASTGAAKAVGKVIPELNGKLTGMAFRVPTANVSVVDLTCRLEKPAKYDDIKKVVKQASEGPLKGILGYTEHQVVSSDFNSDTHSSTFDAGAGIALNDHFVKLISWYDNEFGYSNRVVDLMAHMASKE
Cytochrome P450 2C9, sequence (P11712 whole entry): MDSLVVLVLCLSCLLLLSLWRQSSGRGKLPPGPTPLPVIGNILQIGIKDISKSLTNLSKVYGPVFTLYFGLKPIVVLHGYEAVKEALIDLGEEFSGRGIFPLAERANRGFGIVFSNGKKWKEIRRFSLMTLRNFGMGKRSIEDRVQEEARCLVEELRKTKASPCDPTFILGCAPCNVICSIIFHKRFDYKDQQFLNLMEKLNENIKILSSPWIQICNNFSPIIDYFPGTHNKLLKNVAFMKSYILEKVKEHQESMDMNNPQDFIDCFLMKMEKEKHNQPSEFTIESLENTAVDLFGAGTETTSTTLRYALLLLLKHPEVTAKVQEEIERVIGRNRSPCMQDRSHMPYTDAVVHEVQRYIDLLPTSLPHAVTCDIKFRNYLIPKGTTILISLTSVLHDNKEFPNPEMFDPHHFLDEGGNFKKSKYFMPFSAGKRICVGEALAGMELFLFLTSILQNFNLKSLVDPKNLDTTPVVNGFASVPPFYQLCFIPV
Luciferin 4-monooxygenase, sequence (P08659 whole entry): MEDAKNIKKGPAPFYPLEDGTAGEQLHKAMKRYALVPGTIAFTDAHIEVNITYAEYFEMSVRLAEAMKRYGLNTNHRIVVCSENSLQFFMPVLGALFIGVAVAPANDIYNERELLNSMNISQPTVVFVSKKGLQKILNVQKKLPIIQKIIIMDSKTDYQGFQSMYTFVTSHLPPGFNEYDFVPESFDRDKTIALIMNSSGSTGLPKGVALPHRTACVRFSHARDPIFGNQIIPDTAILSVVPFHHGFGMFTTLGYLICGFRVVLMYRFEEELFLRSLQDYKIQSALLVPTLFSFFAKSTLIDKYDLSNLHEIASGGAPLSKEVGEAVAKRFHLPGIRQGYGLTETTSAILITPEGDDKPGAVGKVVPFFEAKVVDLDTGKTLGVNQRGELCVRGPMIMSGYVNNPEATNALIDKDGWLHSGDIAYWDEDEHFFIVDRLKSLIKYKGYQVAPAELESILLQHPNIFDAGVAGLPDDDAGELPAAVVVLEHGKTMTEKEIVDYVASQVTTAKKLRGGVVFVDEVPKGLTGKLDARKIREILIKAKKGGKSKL
Cytochrome P450 2C19, sequence (P33261 whole entry): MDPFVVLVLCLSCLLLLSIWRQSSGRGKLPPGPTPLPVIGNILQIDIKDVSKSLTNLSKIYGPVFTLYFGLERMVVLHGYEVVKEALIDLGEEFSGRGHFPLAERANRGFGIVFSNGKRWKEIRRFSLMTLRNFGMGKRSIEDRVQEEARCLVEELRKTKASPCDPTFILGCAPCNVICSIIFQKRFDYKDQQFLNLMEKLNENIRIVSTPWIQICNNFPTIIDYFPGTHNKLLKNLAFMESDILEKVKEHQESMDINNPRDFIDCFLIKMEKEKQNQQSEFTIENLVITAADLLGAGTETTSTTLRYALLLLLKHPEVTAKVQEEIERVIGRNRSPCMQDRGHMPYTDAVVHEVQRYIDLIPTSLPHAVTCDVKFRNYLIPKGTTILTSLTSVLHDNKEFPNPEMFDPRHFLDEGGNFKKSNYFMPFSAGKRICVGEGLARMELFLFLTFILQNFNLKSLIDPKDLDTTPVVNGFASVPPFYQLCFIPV

N#CC1=C(N)NC(SCc2ccc(Cl)cc2)=C(C#N)C12CCCCC2
EC50 [1]: 8.84 µM (active)
EC50 [2]: 6.43 µM (active)

CCC(=O)N1CCN(c2ccc(NC(=O)c3cccs3)cc2)CC1
AC50 (Cytochrome P450 2C19): 0.501 µM (inconclusive)
AC50 (Cytochrome P450 3A4): inconclusive
AC50 (Cytochrome P450 2C9): inconclusive

COc1cc(CNc2ccc3[nH]c(=O)[nH]c3c2)ccc1OCC(=O)NC(C)(C)C
EC50 [3]: > 112 µM (not active)
IC50 [4]: > 50 µM (not active)

O=C(OC1CCN(c2ncc(C(F)(F)F)cc2Cl)CC1)c1ccccc1
AC50 (Cytochrome P450 3A4): inconclusive

CCOC(=O)c1ccccc1NC(=O)C1COc2ccccc2O1 (stereo unspecified)
CC50 [5]: > 40 µM (active)

Cc1ccc(NC2=C(Cl)C(=O)N(c3ccc(C)cc3)C2=O)cc1
IC50 [6]: > 100 µM (not active)
IC50 (Bcl-2-related protein A1 [7]): 2.54 µM (active)
IC50 (Bcl-2-related protein A1 [8]): 1.7 µM (active)

CN(C)S(=O)(=O)c1ccc(C(=O)Nc2nc(-c3cccs3)cs2)cc1
EC50 [9]: 79.7 µM (active)
EC50 [10]: 102 µM (active)
AC50 [11]: 67.7 µM (active)
AC50 [12]: 0.879 µM (active)
AC50 [13]: > 70 µM (inactive)
AC50 [14]: 9.43 µM (active)

COC(=O)c1ccc(CSc2nnc(-c3ccncc3)o2)o1
IC50 (cells): 39.6 µM (active)
IC50 [15]: 11 µM (inactive)

CCCCN1C(=O)N(C)C2NC(=O)NC21 (stereo unspecified)
IC50 [15]: 3 µM (active)

CCOC(=O)C1=C(N)n2c(s/c(=C/c3ccco3)c2=O)=C(C(=O)OC)C1c1ccco1 (stereo unspecified)
CC50 [16]: > 40 µM (active)

C[C@H](CO)N1C[C@H](C)[C@H](CN(C)C(=O)Nc2ccc3c(c2)OCO3)Oc2ncc(-c3cccc(C(F)(F)F)c3)cc2C1=O
AC50 [17]: 14.1 µM (active)

COc1ccc(C#Cc2ccc([C@@H]3[C@@H](CO)N4CCCCN(C(=O)Nc5ccccc5)C[C@H]34)cc2)cc1
AC50 [17]: 6.46 µM (active)
AC50 [18]: 1.29 µM (active)
AC50 [19]: 11.4 µM (active)

Cc1ccccc1S(=O)(=O)N1[C@H](C#N)[C@H](c2ccc(C#CC3CCCCC3)cc2)[C@H]1CO
AC50 [20]: 10.7 µM (active)
AC50 [21]: 13 µM (active)

CCN(CC)c1ccc(/C=N/N2C(C)CCCC2C)c(O)c1 (stereo unspecified)
AC50 [22]: 2.22 µM (active)
AC50 [11]: 48.3 µM (active)
AC50 [13]: > 70 µM (inactive)
